Experimental data published in ChEMBL document CHEMBL1671659, “In vitro and in vivo properties of dihydrophthalazine antifolates, a novel family of antibacterial drugs” (Antimicrob Agents Chemother, 2009).
Values after ≈ are worked out from the molar mass of the structure shown. Active and inactive are the calls of the source. No cut-off for these calls is given here.

Key:
Staphylococcus aureus [1] = test: Antibacterial activity against methicillin, vancomycin, trimethoprim-sensitive Staphylococcus aureus ATCC 29213 harboring dfrB gene; type: functional
Dihydrofolate reductase = Dihydrofolate reductase (Staphylococcus aureus, UniProt P0A017, F99Y); test: Inhibition of trimethoprim-resistant Staphylococcus aureus DfrB type dihydrofolate reductase F98Y mutant
Staphylococcus aureus [2] = test: Antibacterial activity against vancomycin, trimethoprim-sensitive and methicillin-resistant Staphylococcus aureus ATCC 43300 harboring dfrB gene; type: functional
[3] = tested on: Staphylococcus epidermidis; test: Antibacterial activity against methicillin, vancomycin, trimethoprim-sensitive Staphylococcus epidermidis ATCC 14990 harboring dfrC gene; type: functional
Staphylococcus aureus [4] = test: Antibacterial activity against vancomycin, trimethoprim, methicillin-resistant Staphylococcus aureus VRS1 harboring dfrA and dfrB genes; type: functional
[5] = Inhibition of trimethoprim-sensitive Staphylococcus aureus DfrB type dihydrofolate reductase
[6] = Inhibition of trimethoprim-resistant Staphylococcus aureus Type S1 dihydrofolate reductase
[7] = tested on: Staphylococcus epidermidis; test: Antibacterial activity against methicillin, vancomycin-sensitive and trimethoprim-resistant Staphylococcus epidermidis BAS000635 harboring dfrC and dfrA genes; type: functional
Enterococcus faecium [8] = test: Antibacterial activity against Enterococcus faecium in presence of 250 ug/ml thymidine; type: functional
Streptococcus pneumoniae [9] = test: Antibacterial activity against Streptococcus pneumoniae
Staphylococcus aureus [10] = test: Antibacterial activity against trimethoprim-sensitive Staphylococcus aureus ATCC 29213 infected in NMRI mouse model of septicemia assessed as complete protection from infections at 3.1 mg/kg, iv; type: functional, organism-based; design: dose 3.1 mg/kg
Enterococcus faecalis [11] = test: Antibacterial activity against vancomycin-sensitive dfrE, dfrF-positive and folA-negative Enterococcus faecalis; type: functional
Enterococcus faecium [12] = test: Antibacterial activity against vancomycin-resistant dfrE-negative and folA, dfrF-positive Enterococcus faecium; type: functional
Enterococcus faecalis [13] = test: Antibacterial activity against Enterococcus faecalis in presence of 50 ug/ml thymidine; type: functional
[14] = tested on: Staphylococcus epidermidis; test: Antibacterial activity against methicillin-sensitive dfrA, dfrD-negative Staphylococcus epidermidis harboring F98Y mutation in dfrC gene; type: functional
Enterococcus faecium [15] = test: Antibacterial activity against Enterococcus faecium; type: functional
[16] = tested on: Staphylococcus epidermidis; test: Antibacterial activity against methicillin-resistant dfrC, dfrA-positive and dfrA within SCCmec-N1, dfrD-negative Staphylococcus epidermidis; type: functional
Mus musculus [17] = test: Toxicity in po dosed NMRI mouse; type: organism-based; details: in vivo
Mycobacterium avium = test: Antibacterial activity against Mycobacterium avium assessed as inhibition of bacterial growth at <=4 ug/ml; type: functional; design: scale not given: the % may be the effect or the level left
[18] = AUC (0 to t) in NMRI mouse blood at 25 mg/kg administered through oral gavage after 7 hrs; type: ADME, organism-based; design: time < 7 hr, dose 25 mg/kg, route oral
Staphylococcus aureus [19] = test: Antibacterial activity against methicillin-resistant dfrB, dfrG-positive and dfrA-negative Staphylococcus aureus; type: functional
[20] = Cmax in NMRI mouse blood at 25 mg/kg administered through oral gavage measured after 7 hrs; type: ADME, organism-based; design: dose 25 mg/kg, route oral
Staphylococcus aureus [21] = test: Antibacterial activity against trimethoprim-sensitive Staphylococcus aureus ATCC 29213; type: functional
Staphylococcus aureus [22] = test: Antibacterial activity against trimethoprim-sensitive Staphylococcus aureus ATCC 29213 infected in NMRI mouse model of septicemia assessed as succumbed to infections at 1.6 mg/kg, iv; type: functional, organism-based; design: dose 1.6 mg/kg
HeLa = test: Cytotoxicity against human HeLa cells; type: cell-based
Streptococcus pneumoniae [23] = test: Antibacterial activity against Streptococcus pneumoniae in presence of 250 ug/ml thymidine; type: functional
Enterococcus faecium [24] = test: Antibacterial activity against Enterococcus faecium in presence of 50 ug/ml thymidine; type: functional
Staphylococcus aureus [25] = test: Antibacterial activity against methicillin-resistant dfrA within SCCmec-N1, dfrA and dfrG -negative Staphylococcus aureus harboring F98Y mutation in dfrB gene; type: functional
Haemophilus influenzae [26] = test: Antibacterial activity against Haemophilus influenzae in presence of 250 ug/ml thymidine; type: functional
Haemophilus influenzae [27] = test: Antibacterial activity against Haemophilus influenzae; type: functional
[28] = tested on: Staphylococcus epidermidis; test: Antibacterial activity against methicillin-sensitive dfrC, dfrA-positive and dfrD-negative Staphylococcus epidermidis; type: functional
Streptococcus pneumoniae [29] = test: Antibacterial activity against Streptococcus pneumoniae in presence of 50 ug/ml thymidine; type: functional
Staphylococcus aureus [30] = test: Antibacterial activity against trimethoprim-sensitive Staphylococcus aureus ATCC 29213 infected in NMRI mouse model of septicemia; type: functional
[31] = tested on: Staphylococcus epidermidis; test: Antibacterial activity against methicillin-sensitive dfrA-positive and dfrD-negative Staphylococcus epidermidis harboring F98Y mutation in dfrC gene; type: functional
Enterococcus faecalis [32] = test: Antibacterial activity against vancomycin-sensitive folA, dfrF-negative Enterococcus faecalis harboring A5T, K88N, F102Y mutation in dfrE gene; type: functional
Staphylococcus aureus [33] = test: Antibacterial activity against trimethoprim-resistant Staphylococcus aureus BAS003908; type: functional
[34] = tested on: Staphylococcus epidermidis; test: Antibacterial activity against methicillin-sensitive dfrC-positive and dfrA, dfrD-negative Staphylococcus epidermidis; type: functional
Staphylococcus aureus [35] = test: Antibacterial activity against methicillin-sensitive dfrB-positive abd dfrA, dfrG-negative Staphylococcus aureus; type: functional
Enterococcus faecium [36] = test: Antibacterial activity against vancomycin-resistant dfrE, dfrF-negative and folA-positive Enterococcus faecium; type: functional
[37] = Tmax in NMRI mouse blood at 25 mg/kg administered through oral gavage measured after 7 hrs; type: ADME, organism-based; design: dose 25 mg/kg, route oral
Enterococcus faecalis [38] = test: Antibacterial activity against Enterococcus faecalis in presence of 250 ug/ml thymidine; type: functional
Enterococcus faecalis [39] = test: Antibacterial activity against Enterococcus faecalis; type: functional
Enterococcus faecium [40] = test: Antibacterial activity against vancomycin-sensitive dfrE, dfrF-negative and folA-positive Enterococcus faecium; type: functional
[41] = Oral bioavailability in NMRI mouse; type: ADME, organism-based; details: in vivo
Staphylococcus aureus [42] = test: Antibacterial activity against trimethoprim-resistant Staphylococcus aureus BAS003908 infected in NMRI mouse model of septicemia; type: functional
Mus musculus [43] = test: Hepatotoxicity in NMRI mouse assessed as increase in liver weight at 400 mg/kg administered through oral gavage for 5 days; type: toxicity, organism-based; design: dose 400 mg/kg, route oral; details: in vivo, 120 h
Staphylococcus aureus [44] = test: Antibacterial activity against methicillin-resistant dfrB, dfrA-positive and dfrA within SCCmec-N1, dfrG-negative Staphylococcus aureus; type: functional
Haemophilus influenzae [45] = test: Antibacterial activity against Haemophilus influenzae in presence of 50 ug/ml thymidine

`COc1cc(Cc2cnc(N)nc2N)cc(/C=C/C(=O)N2N=Cc3ccccc3[C@@H]2c2cnc(N(C)C)nc2)c1OC` gave an MIC (Staphylococcus aureus [1]) of 0.5 µg/mL (≈ 0.884 µM), an IC50 (Dihydrofolate reductase) of 40.9 nM and an MIC (Staphylococcus aureus [2]) of 0.5 µg/mL (≈ 0.884 µM). The MIC [3] was 0.25 µg/mL (≈ 0.442 µM), the MIC (Staphylococcus aureus [4]) was 2 µg/mL (≈ 3.54 µM) and the IC50 [5] was 9.2 nM. It also gave an IC50 [6] of 35.1 nM and an MIC [7] of 2 µg/mL (≈ 3.54 µM).
`COc1cc(Cc2cnc(N)nc2N)cc(/C=C/C(=O)N2N=Cc3ccccc3[C@H]2c2cnc(N(C)C)nc2)c1OC` gave an MIC (Staphylococcus aureus [1]) of 2 µg/mL (≈ 3.54 µM), an IC50 (Dihydrofolate reductase) of 2920 nM and an MIC (Staphylococcus aureus [2]) of 2 µg/mL (≈ 3.54 µM). It also gave an MIC [3] of 0.5 µg/mL (≈ 0.884 µM), an MIC (Staphylococcus aureus [4]) greater than 8 µg/mL and an IC50 [5] of 37.6 nM. For the same compound, the IC50 [6] was 1010 nM and the MIC [7] was greater than 8 µg/mL.
`COc1cc(Cc2cnc(N)nc2N)cc(/C=C/C(=O)N2N=Cc3ccccc3[C@H]2c2cnc(N3CCOCC3)nc2)c1OC` showed an MIC (Staphylococcus aureus [1]) of 4 µg/mL (≈ 6.58 µM), an IC50 (Dihydrofolate reductase) of 5700 nM and an MIC (Staphylococcus aureus [2]) of 2 µg/mL (≈ 3.29 µM). The MIC [3] was 1 µg/mL (≈ 1.65 µM), the MIC (Staphylococcus aureus [4]) was greater than 8 µg/mL and the IC50 [5] was 46.8 nM. It also gave an IC50 [6] of 2590 nM and an MIC [7] greater than 8 µg/mL.
For `COc1cc(Cc2cnc(N)nc2N)cc(/C=C/C(=O)N2N=Cc3ccccc3C2c2cnc(N(C)C)nc2)c1OC` (stereo not given), the MIC (Enterococcus faecium [8]) was no less than 128 µg/mL, the MIC (Staphylococcus aureus [1]) was 0.5 µg/mL (≈ 0.884 µM) and the MIC (Streptococcus pneumoniae [9]) was no less than 128 µg/mL. For the same compound, the Activity (Staphylococcus aureus [10]) was “Active”, the MIC (Enterococcus faecalis [11]) was greater than 128 µg/mL and the MIC (Enterococcus faecium [12]) was greater than 128 µg/mL. It also gave an MIC (Enterococcus faecalis [13]) of no more than 0.25 µg/mL, an MIC [14] of 1 µg/mL (≈ 1.77 µM) and an MIC (Enterococcus faecium [15]) of 2 µg/mL (≈ 3.54 µM). It also gave an IC50 (Dihydrofolate reductase) of 70.2 nM, an MIC [16] of 0.5 µg/mL (≈ 0.884 µM) and an Activity (Mus musculus [17]) of 400 mg/kg. For the same compound, the MIC (Staphylococcus aureus [2]) was 1 µg/mL (≈ 1.77 µM), the Activity (Mycobacterium avium) was 77% and the AUC(0-t) at 7 h [18] was 23400 ng·h/mL. For the same compound, the MIC (Staphylococcus aureus [19]) was 64 µg/mL (≈ 113 µM), the Cmax [20] was 5390 ng/mL and the MIC (Staphylococcus aureus [21]) was 1 µg/mL (≈ 1.77 µM). The Activity (Staphylococcus aureus [22]) was “inactive”, the IC50 (HeLa) was 12000 nM and the MIC [3] was 0.25 µg/mL (≈ 0.442 µM). The MIC (Streptococcus pneumoniae [23]) was no less than 128 µg/mL, the MIC (Staphylococcus aureus [4]) was 2 µg/mL (≈ 3.54 µM) and the MIC (Enterococcus faecium [24]) was no less than 128 µg/mL. It also gave an MIC (Staphylococcus aureus [25]) of 1 µg/mL (≈ 1.77 µM), an MIC (Haemophilus influenzae [26]) of 32 µg/mL and an MIC (Haemophilus influenzae [27]) greater than 128 µg/mL. For the same compound, the MIC [28] was 1 µg/mL (≈ 1.77 µM), the IC50 [5] was 11.3 nM and the MIC (Streptococcus pneumoniae [29]) was 32 µg/mL. For the same compound, the ED50 (Staphylococcus aureus [30]) was 1.6 mg/kg, the MIC [31] was 1 µg/mL (≈ 1.77 µM) and the MIC (Enterococcus faecalis [32]) was 0.5 µg/mL (≈ 0.884 µM). The MIC (Staphylococcus aureus [33]) was 1 µg/mL (≈ 1.77 µM), the MIC [34] was less than 0.25 µg/mL and the MIC [7] was 2 µg/mL (≈ 3.54 µM). The MIC (Staphylococcus aureus [35]) was 1 µg/mL (≈ 1.77 µM), the MIC (Enterococcus faecium [36]) was 2 µg/mL (≈ 3.54 µM) and the Tmax [37] was 2 h. It also gave an MIC (Enterococcus faecalis [38]) of 1 µg/mL, an MIC (Enterococcus faecalis [39]) of 0.5 µg/mL (≈ 0.884 µM) and an MIC (Enterococcus faecium [40]) of no more than 0.25 µg/mL. It also gave a bioavailability [41] of 26%, an ED50 (Staphylococcus aureus [42]) of 3.1 mg/kg and an Activity (Mus musculus [43]) of less than 10%. It also gave an MIC (Staphylococcus aureus [44]) of 1 µg/mL (≈ 1.77 µM), an MIC (Staphylococcus aureus [44]; Staphylococcus aureus, read-out: MIC) of 2 µg/mL (≈ 3.54 µM) and an MIC (Haemophilus influenzae [45]) of no less than 128 µg/mL.
`COc1cc(Cc2cnc(N)nc2N)cc(/C=C/C(=O)N2N=Cc3ccccc3[C@@H]2c2cnc(N3CCOCC3)nc2)c1OC` gave an MIC (Staphylococcus aureus [1]) of 1 µg/mL (≈ 1.65 µM), an IC50 (Dihydrofolate reductase) of 64.4 nM and an MIC (Staphylococcus aureus [2]) of 1 µg/mL (≈ 1.65 µM). It also gave an MIC [3] of 0.25 µg/mL (≈ 0.411 µM), an MIC (Staphylococcus aureus [4]) of 2 µg/mL (≈ 3.29 µM) and an IC50 [5] of 8.9 nM. The IC50 [6] was 98 nM and the MIC [7] was 2 µg/mL (≈ 3.29 µM).
